# Measured values reported in patent US20210252008A1, “BIARYL COMPOSITIONS AND METHODS FOR MODULATING A KINASE CASCADE” (Athenex, Inc., priority 2004, published 2021).
# Assays:
# [1] = tested on: HT29 cell line (NCI standard human colon carcinoma cell line); assay: BrdU cell growth inhibition, HT-29; type: cell-based; details: HT29 cells
# Experimental: (§1) The GI50s for several of the compounds of the invention were assayed as described herein.
# The HT29 cell line is a NCI standard human colon carcinoma cell line. […] HT29 cells were routinely cultured in McCoy's 5A medium supplemented with Fetal Bovine Serum (1.5% v/v) and L-glutamine (2 mM).
# (§2) In the BrdU Assay for cell growth inhibition, quantitation of cell proliferation was based on the measurement of BrdU incorporation during DNA synthesis. The Cell Proliferation ELISA BrdU assay kit (colorimetric) was obtained from Roche Applied Science and performed as per vendor instructions.
# (§3) The growth inhibition (GI) is determined from the formula GI=(T0-Tn×100/T0−CONn) where T0 is the BrdU growth of untreated cells at time “0”, Tn is the BrdU growth of treated cells at day “n” and CONn is the control BrdU growth of control cells at day “n”. The GI50 was extrapolated and the data plotted using XL-Fit 4.0 software.
# (§4) For 96 well culture plate experiments, c-Src 3T3 medium was supplemented with 10 mM HEPES buffer. HT-29 cells were seeded in standard tissue culture 96-well plates and c-Src 3T3 cells were seeded in 96-well plates coated with Poly-D-lysine (BIOCOAT™). To increase CO2 diffusion, c-Src 3T3 96-well plates were incubated with their lids raised by 2 mm using sterile rubber caps.
# (§5) Seeded 96 well plates were allowed to attach overnight for 18-24 hours, either at 37° C. and 5% CO2 for HT-29 or at 37° C. and 10% CO2 for c-Src 3T3. Approx 18-24 hours after seeding, the initial growth of cells (To) was determined for untreated cells using the BrdU assay. Samples were reconstituted in DMSO at 20 mM and intermediate dilutions made using DMEM containing 10% FBS. The final assay concentrations were 1.5% for FBS and 0.05% for DMSO. Samples were added as 10 μL aliquots in triplicate and plates were incubated as above for 72 hours. Negative (vehicle) and positive controls (e.g., AZ (KX-328)) were included. Plates were assayed for BrdU and the data analyzed as above for GI50. […]
# [2] = tested on: c-Src 3T3 cells (NIH 3T3 transfected with human c-Src 527F); assay: BrdU cell growth inhibition, c-Src 3T3; type: cell-based, mouse
# Experimental: as §1
# The c-Src 3T3 is a mouse fibroblast NIH 3T3 normal cell line that has been transfected with a point-mutant of human c-Src wherein tyrosine 527 has been converted to a phenylalanine. This mutation results in “constitutively active” c-Src because phosphorylation on tyrosine 527 results in auto-inhibition of Src by having it fold back on its own SH2 domain. With a Phe there, this phosphorylation can't occur and therefore auto-inhibition can't occur. Thus, the always fully active mutant Src then converts the normal mouse fibroblasts into rapidly growing tumor cells. Since the hyperactive Src is the main factor driving growth in these cells (particularly when cultured under low growth serum conditions), compounds active in blocking this growth are thought to work by blocking Src signaling (e.g. as a direct Src kinase inhibitor or as an inhibitor acting somewhere else in the Src signaling cascade). The cells were routinely cultured in DMEM supplemented with Fetal Bovine Serum (2.0% v/V), L-glutamine (2 mM) and Sodium Pyruvate (1 mM).
# as §2, §3, §4
# as §5, with “Negative (vehicle) and positive controls (e.g., AZ (KX-328)) were included.” left out
# [3] = tested on: osteoclast precursors derived from spleen cells; assay: Effect on osteoclast formation; type: cell-based; details: 5 days, RANKL and M-CSF
# Experimental: To determine the effect of the compounds on osteoclast formation, the compounds were added to osteoclast precursors derived from spleen cells. For the generation of spleen-derived osteoclasts, spleen cells comprising osteoclast precursors were treated with Rapamycin, KX1-141, KX2-328 (Astrazeneca compound), or KX1-329 for 5 days in the presence of receptor activator of nuclear factor-KB ligand (RANKL) and macrophage colony-stimulating factor (M-CSF). In in vitro murine or human osteoclast models, soluble RANKL enables osteoclast precursors to differentiate in the presence of M-CSF (Quinn, et al.; 1998, Endocrinology, 139, 4424-4427; Jimi, et al.; 1999, J. Immunol., 163, 434-442). The untreated control cells were incubated in the presence of RANKL and M-CSF alone. Rapamycin was used as a positive control for the inhibition of osteoclast formation.
# For generating spleen-derived osteoclasts, spleen cells were treated as described above. […] Cells were then stained with the osteoclast marker, tartrate-resistant acid phosphatase (TRAP) to visualize differentiated cells. The numbers of TRAP-positive osteoclasts were counted.
# osteoclasts = assay: Effect on osteoclast survival; type: cell-based; details: 48 hours, RANKL and M-CSF
# Experimental: To determine the effect of the compounds on osteoclast survival, osteoclasts were treated with Rapamycin, KX1-141, KX2-328, or KX1-329 for 48 hours in the presence of RANKL and M-CSF. The untreated, control cells were incubated in the presence of RANKL and M-CSF alone. Rapamycin was used as a positive control for the inhibition of osteoclast survival.
# As described above, osteoclasts were treated with Rapamycin, KX1-141, KX2-328, or KX1-329 for 48 hours in the presence of RANKL and M-CSF. […] Cells were then stained with TRAP and the number of TRAP-positive osteoclasts were counted.
# [4] = tested on: osteoclasts on bone slices; assay: Effect on bone resorption in vitro (bone slices); type: cell-based
# Experimental: To determine the effects of the compounds on osteoclast formation on bone slices, the bone slices were treated with Rapamycin, KX1-141, KX2-328, or KX1-329. […] The number of osteoclasts on the bone slices were counted.
# During the resorption of bone, osteoclasts form resorption pits. To determine the effects of the compounds on resorption pit formation on bone slices, the bone slices were treated with Rapamycin, KX1-141, KX2-328, or KX1-329, as described above. […] The number of resorption pits on the bone slices was determined.
# Bone slices were treated as indicated above. […] The bone slices were then stained with TRAP.
# Bone slices were treated as indicated above. […] The bone slices were stained with Toluidine Blue to reveal resorption pits, which are indicators of osteoclast-mediated resorption of bone.
# [5] = tested on: Chinchillas, noise-induced hearing loss; assay: Protection against noise-induced hearing loss; type: in vivo; details: chinchilla; round window application; 4 kHz band noise 105 dB SPL four hours; day 1, 7, 21; in most cases
# Experimental: Chinchillas (N=6) were used in studies of noise-induced hearing loss. The animals' hearing sensitivity was measured using standard electrophysical techniques before the experimental manipulation. […] Animals were anesthetized, the auditory bullae were opened, and the left and right cochleas were visualized. The round window leading to the scala tympani of the cochlea was used as the access point for drug application. Animals were treated with KX1-004, KX1-141, KX1-329 or KX2-328 (a non-ATP competitive inhibitor from Astrazeneca), emulsified in DMSO, in […] of saline solution, which was placed on the round window of one ear. A control solution of 3 mM DMSO in […] of saline solution was placed on the round window of the other ear. The solution was allowed to set on the round window for 30 minutes, then the auditory bullae were closed. […] Following the noise exposure, the animals' hearing was tested at day 1, day 7, and day 21 to determine evoked potential threshold shifts. Permanent threshold shift was assessed at day 21.
# FIGS. 10-12 show the average threshold shifts for animals treated with KX1-004, KX1-141, KX1-329 or KX2-328.
# [6] = tested on: Guinea pigs, cisplatin-induced hearing loss; assay: Protection against cisplatin-induced hearing loss; type: in vivo; details: guinea pig; subcutaneous, prior to cisplatin; FIG. 15
# Experimental: The effects of high level noise and ototoxic drugs, such as cisplatin or the class of aminoglycosides, share several common features in the inner ear. First, the noise and/or drugs alter the free radi cal/anti oxidant levels in the cochlea (inner ear). […] Guinea pigs (N=7) were used in studies of cisplatin-induced hearing loss. The animals' hearing sensitivity was measured using standard electrophysical techniques before the experimental manipulation. […] Animals were anesthetized and treated with cisplatin. Subsequently, the animals' hearing was tested to determine evoked potential threshold shifts.
# Animals were treated subcutaneously with KX1-004 prior to the cisplatin-induced hearing loss.
molecule,measurement,setting,value
O=C(Cc1ccc(-c2ccccc2)c[n+]1[O-])NCc1cccc(F)c1 [KX1-329 N-oxide],GI50 (HT29),[1],inactive (HT-29)
same,GI50 (c-Src 3T3),[2],inactive (c-Src 3T3);
O=C(Cc1ccc(-c2ccccc2)cn1)NCc1cccc(F)c1 [KX1-329],number of TRAP-positive osteoclasts vs untreated control (formation),[3]; FIG. 17,reduced the number of TRAP-positive osteoclasts
same,formation of osteoclasts vs untreated control,"[3]; stained, FIG. 16",inhibited the formation of osteoclasts
same,survival of osteoclasts vs untreated control,osteoclasts; FIG. 18,inhibited the survival of osteoclasts
same,number of TRAP-positive osteoclasts vs untreated control (survival),osteoclasts; FIG. 19,reduced the number of TRAP-positive osteoclasts
same,number of osteoclasts on the bone slices vs untreated control,[4]; FIG. 20A,reduced the number of osteoclasts on the bone slices
same,number of resorption pits on the bone slices vs untreated control,[4]; FIG. 20B,reduced the number of resorption pits
same,number of TRAP-positive osteoclasts on the bone slices vs untreated control,"[4]; TRAP stain, FIG. 21A",reduced the number of TRAP-positive osteoclasts
same,number of resorption pits on the bone slices vs untreated control,"[4]; Toluidine Blue stain, FIG. 21B",reduced the number of resorption pits
same,average dB threshold shifts of treated ears vs control,[5],lower
CN1CCN(Cc2ccc(-c3ccc(CC(=O)NCc4cccc(F)c4)nc3)cc2)CC1 [KX2-376],GI50,[2]; NIH3T3,> 16 nM
CCOc1ccc(-c2ccc(CC(=O)NCc3cccc(F)c3)nc2)c(OCCN2CCN(C)CC2)c1 [KX2-384],GI50 (HT29),[1],inactive (HT-29)
CC(C)COc1cc(F)cc(CNC(=O)Cc2ccc(-c3ccc(OCCN4CCCCC4)cc3)cn2)c1 [KX2-386],GI50 (HT29),[1],inactive (HT-29)
CC(C)COc1cc(F)cc(CNC(=O)Cc2ccc(-c3ccc(OCCN4CCOCC4)cc3)cn2)c1 [KX2-387],GI50 (c-Src 3T3),[2],inactive (c-Src 3T3);
CCOc1ccc(-c2ccc(CC(=O)NCc3cccc(F)c3)nc2)c(OCCN2CCCCC2)c1 [KX2-389],GI50 (c-Src 3T3),[2],Inactive (c-Src 3T3);
KX1-004,protection against cisplatin-induced hearing loss (median CAP thresholds),[6],protected against cisplatin-induced hearing loss
same,average dB threshold shifts of treated ears vs control,[5],lower
